Data as given in patent US20050020654A1, “Novel PPAR agonists, pharmaceutical compositions and uses thereof” (priority 2003, published 2005).
Like-named read-outs stand apart in the source and are kept apart here.

Columns and labels:
[1] = biological target: T1, PPARγ (Homo sapiens, UniProt P37231); assay: PPARγ transactivation assay (luciferase reporter) in transfected CV-1 cells; type: cell-based
T1 construct: expressed in transfected cells; host or cells: CV-1 cells (ATCC CCL-70)
T1 sequence (P37231 1-505): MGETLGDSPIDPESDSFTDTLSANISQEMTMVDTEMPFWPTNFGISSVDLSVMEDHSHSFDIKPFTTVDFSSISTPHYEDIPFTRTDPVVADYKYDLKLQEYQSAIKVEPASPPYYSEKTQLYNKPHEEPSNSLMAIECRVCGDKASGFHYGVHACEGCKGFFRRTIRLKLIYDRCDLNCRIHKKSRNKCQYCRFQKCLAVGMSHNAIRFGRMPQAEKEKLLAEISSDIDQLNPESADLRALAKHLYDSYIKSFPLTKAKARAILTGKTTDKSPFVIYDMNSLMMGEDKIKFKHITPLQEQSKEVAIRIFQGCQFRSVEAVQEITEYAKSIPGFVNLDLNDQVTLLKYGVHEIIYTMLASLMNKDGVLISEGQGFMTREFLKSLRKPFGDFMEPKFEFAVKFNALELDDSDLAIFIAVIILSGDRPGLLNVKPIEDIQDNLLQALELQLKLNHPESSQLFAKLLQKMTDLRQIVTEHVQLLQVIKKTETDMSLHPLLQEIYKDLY
Method: PPARγ activity was determined by transactivation assays in CV-1 cells (CCL-70 line from American Type Culture Collection (ATCC), Bethesda, Md.) transfected using the GenePorter transfection reagent (Gene Therapy Systems, San Diego, Calif.) to deliver 200 ng of a PPARγ expression plasmid and 1 μg of a luciferase reporter plasmid and 400 ng pCMVSport b-gal (Gibco, Grand Island, N.J.) as an internal control. 24 hr post-transfection, cells were treated with varying concentrations of the test compounds of this invention, and incubated for an additional 24 hr. Rosiglitazone and pioglitazone, a known PPARγ full agonist, and telmisartan, a known ARB and PPARγ partial agonist (Benson et al. Hypertension (2004) in press) are used as controls. Cell extracts were assayed for luciferase and β-galactosidase activity using Promega (Madison, Wis.) assay systems. All treatments were performed in triplicate, and normalized for β-galactosidase activity. Agonist concentrations yielding half maximal activation (EC50 values) were calculated using GraphPad Prism version 3.03 (GraphPad Software, Inc., San Diego, Calif.).

[2] = type: in vivo, human
Method: A person with hypertension, hypertriglyceridemia, and type 2 diabetes was selected for therapy. […] The patient is taking another medication for type 2 diabetes but the dose of this medication is held constant throughout the trial. The patient is given telmisartan at an oral dose of 80 mg/day. […] The oral dose of telmisartan (Micardis®) is then increased to 160 mg/day. […] The telmisartan (Micardis®) therapy is continued according to the judgment of the clinician in order to maintain the improved control of the patient's blood pressure and their type 2 diabetes.

[3] = type: in vivo
Method: An obese person (BMI: 34.4 kg/m2, waist circumference: 51 inches) with untreated hypertension, pre-diabetes and the metabolic syndrome was given telmisartan (Micardis®), 80 mg/day, for treatment of high blood pressure. […] The patient has the metabolic syndrome as defined by the National Cholesterol Education Program (NCEP). The metabolic syndrome is associated with a 5-9 fold increase in the risk for developing type 2 diabetes and a 2-3 fold increase risk in cardiovascular mortality. […] After 5 weeks on valsartan (week 15), their glucose, insulin, triglyceride levels, and HOMA-IR score increased, consistent with a reversal in the improved insulin resistance obtained with telmisartan (Table 1). Valsartan was discontinued and they were switched back to telmisartan.

[4] = biological target: T1, PPARγ; settings: Benson et al. Hypertension (2004) in press; cited from earlier work
[5] = oral 80 mg/day, after three weeks
[6] = oral 160 mg/day, after seven weeks

CCCc1nc2c(C)cc(Br)cc2n1CCOc1ccc(CC2SC(=O)NC2=O)cc1C(=O)O (stereo not drawn) [2-(2-(6-Bromo-4-methyl-2-propyl-1H-benzo[d]imidazol-1-yl)ethoxy)-5-((2,4-dioxothiazolidin-5-yl)methyl)benzoic acid]
PPAR-γ Fold activation ([1]; @ 0.1 uM): 3.8 x | PPAR-γ Fold activation ([1]; @ 1 μM): 10 x | PPAR-γ Fold activation ([1]; @ 10 μM): 15.5 x | PPAR-γ Fold activation ([1]; @ .01 uM): 1.7 x

CCCCC1=NC2(CCCC2)C(=O)N1Cc1ccc(-c2ccccc2-c2nnn[nH]2)cc1 [Irbesartan, reference compound]
PPARγ activation [1]: 2-3 fold

COC(=O)c1cc(CC2SC(=O)NC2=O)ccc1OCCn1c(CCCCC2CCCCC2)nc2ccccc21 (stereo not drawn) [Methyl 2-(2-(2-(4-cyclohexylbutyl)-1H-benzo[d]imidazol-1-yl)ethoxy)-5-((2,4-dioxothiazolidin-5-yl)methyl)benzoate]
PPAR-γ Fold activation ([1]; @ 0.1 uM): 2 x | PPAR-γ Fold activation ([1]; @ 1 μM): 24 x | PPAR-γ Fold activation ([1]; @ 10 μM): 34 x | PPAR-γ Fold activation ([1]; @ .01 uM): 1 x

CCCc1nc2c(C)cc(Br)cc2n1CCOc1ccc(CC2SC(=O)NC2=O)cc1C(=O)OC (stereo not drawn) [Methyl 2-(2-(6-bromo-4-methyl-2-propyl-1H-benzo[d]imidazol-1-yl)ethoxy)-5-((2,4-dioxothiazolidin-5-yl)methyl)benzoate]
PPAR-γ Fold activation ([1]; @ 0.1 uM): 3.1 x | PPAR-γ Fold activation ([1]; @ 1 μM): 32 x | PPAR-γ Fold activation ([1]; @ 10 μM): 41 x | PPAR-γ Fold activation ([1]; @ .01 uM): 1 x

CCCc1nc2c(C)cc(-c3nc4ccccc4n3C)cc2n1Cc1ccc(-c2ccc(C(=O)O)cc2C(=O)O)cc1 [averysartan]
PPAR-γ Fold activation ([1]; concentration not given): No activity

CCCc1nc2c(C)cc(-c3nc4ccccc4n3C)cc2n1Cc1ccc(-c2ccc(C(=O)OC)cc2C(=O)OC)cc1 [proaverysartan]
PPAR-γ Fold activation ([1]; @ 0.1 uM): 1 x | PPAR-γ Fold activation ([1]; @ 1 μM): 5 x | PPAR-γ Fold activation ([1]; @ 5 uM): 9 x | PPAR-γ Fold activation ([1]; @ 10 μM): 11 x

CCCc1nc2c(C)cc(-c3nc4ccccc4n3C)cc2n1Cc1ccc(-c2ccccc2C(=O)O)cc1 [telmisartan]
activation of the receptor relative to maximum level of activity achieved by the full agonists pioglitazone and rosiglitazone [1]: 25%-30% | PPARγ activation ([1]; tested at concentrations 1-5 mM): 5-8 fold | HDL cholesterol [2, 5]: 50 mg/dL | blood pressure [2, 5]: 143/91 | fasting glucose [2, 5]: 188 mg/dL | triglyceride [2, 5]: 281 mg/dL | HDL cholesterol [2, 6]: 60 mg/dL | blood pressure [2, 6]: 131/81 | glucose level [2, 6]: 145 mg/dL | triglyceride level [2, 6]: 178 mg/dL | blood pressure ([3]; 80 mg/day, throughout the observation period): normalized and remained normal | blood glucose, insulin and triglyceride concentrations ([3]; 80 mg/day, up to week 10): progressively decreased | insulin resistance, HOMA-IR score ([3]; 80 mg/day, up to week 10): improvement in insulin resistance | fluid retention, peripheral edema, pulmonary edema, or congestive heart failure on clinical examination ([3]; human, in vivo): no evidence of any increase | insulin resistance and triglycerides ([3]; switched back from valsartan, following 4 weeks (week 19)): again improved | activation of PPARγ [4]: has been shown to activate PPARγ

CCCCC(=O)N(Cc1ccc(-c2ccccc2-c2nnn[nH]2)cc1)[C@H](C(=O)O)C(C)C [valsartan]
glucose, insulin, triglyceride levels, and HOMA-IR score ([3]; 160 mg/day, after 5 weeks (week 15), after switch from telmisartan): increased | activation of PPARγ [4]: does not activate PPARγ

Methyl 5-((2,4-dioxothiazolidin-5-yl)methyl)-2-(2-(4-methyl-6-phenyl-2-propyl-1H-benzo[d]imidazol-1-yl)ethoxy)benzoate
PPAR-γ Fold activation ([1]; @ 0.1 uM): 1.2 x | PPAR-γ Fold activation ([1]; @ 1 μM): 6.1 x | PPAR-γ Fold activation ([1]; @ 10 μM): 7.4 x
